Measured values: patent publication US20120263739A1, “ANTI INTEGRIN ANTIBODIES LINKED TO NANOPARTICLES LOADED WITH CHEMOTHERAPEUTIC AGENTS” (MERCK PATENT GMBH, priority 2009, published 2012)
≈ marks a conversion by molar mass, not a printed value. Blank lines part the entries; values can stand above or below the compound they belong to.

Assays:
[1] = system: αvβ3-positive M21 melanoma cells; assay: MTT cell viability assay; settings: for IC-50 M21: MTT, reduce cell viability by 50%, M21 cells
Description: (§5) Cell viability was assessed using the 3-(4,5-dimethylthiazol-2-yl)-2,5-diphenyltetrazolium bromide (MTT) dye reduction assay [27] modified as described before [28].

[2] = system: αv-negative M21L cells; assay: MTT cell viability assay; settings: for IC-50 M21L: MTT, reduce cell viability by 50%, M21L cells
Description: as §5

[3] = Doxorubicin loading (HPLC of non-entrapped drug); assay type: physicochemical; settings: mean ± SD, n = 3
Description: (5) Preparation of doxorubicin-loaded nanoparticles 160 mg HSA were dissolved in 4 ml purified water and the solution was filtered through a 0.22 μm cellulose acetate membrane filter (Schleicher & Schuell, Dassel, Germany). An aliquot (500 μl) of this solution was added to 200 μl of a 0.5% (w/v) aqueous stock solution of doxorubicin. To this mixture, 300 μl of purified water were added. In order to adsorb doxorubicin to human serum albumin in solution, the mixture was incubated under stirring (550 rpm) for 2 h at room temperature. For the preparation of nanoparticles by desolvation, 3 ml ethanol (96%, v/v) were added continuously (1 ml/min) with a tubing pump (Ismatec IPN, Glattbrugg, Switzerland). After protein desolvation, an aliquot of 11.75 μl 8% glutaraldehyde solution was added to induce particle crosslinking (corresponding to 100% stoichiometric protein crosslinking). […] The nanoparticle content was determined by gravimetry. […] The content of entrapped doxorubicin was calculated from the difference between total doxorubicin and unbound drug. For the quantification of doxorubicin, a Merck Hitachi D7000 HPLC system equipped with a LiChroCART® 250-4 LiChrospher®-100 RP-18 column (Merck, Darmstadt, Germany) was used. […] Doxorubicin was quantified by UV (250 nm) and fluorescence detection (excitation 560 nm, emission 650 nm).

[4] = system: M21 cells; assay: Cellular uptake and intracellular distribution, confocal laser scanning microscopy; assay type: cell-based; settings: 10 ng/μl, 4 h at 37° C., CLSM
Description: Cellular uptake and intracellular distribution: The cellular uptake and intracellular distribution of these nanoparticulate formulations are shown by confocal laser scanning microscopy (CLSM). αvβ3 integrin-positive M21 melanoma cells are incubated with NP-Dox-DI17E6, with NP-Dox-IgG, or free Doxorubicin (FIG. 5). […] The overlay of the different fluorescence channels (FIG. 6B-D) verifies the intracellular uptake of NP-Dox-DI17E6 (FIG. 6A).
FIG. 5: Cellular uptake and intracellular distribution of nanoparticles studied by confocal laser scanning microscopy (CLSM). M21 cells were cultured on glass slides and treated with 10 ng/μl of the different nanoparticle formulations (referred to DI17E6 concentration or equivalent amount of control nanoparticles) for 4 h at 37° C. The green autofluorescence of the nanoparticles was used for detection and the red autofluorescence of doxorubicin. The cell membranes were stained with Concanavalin A AlexaFluor 350 (blue). Pictures were taken within inner sections of the cells. […]
Cellular uptake and intracellular distribution of the nanoparticles were studied by confocal laser scanning microscopy. […] (concentrations are calculated referred to DI17E6 or equivalent NP amounts as described in 2.5). […] Nanoparticles were detected at 488/520 nm. Doxorubicin was detected by red fluorescence at 488/590 nm.

[5] = system: αvβ3 integrin positive melanoma cells M21; assay: Cell detachment from vitronectin coated surface; assay type: cell-based; settings: 4 ng/μl, 4 h at 37° C.
Description: FIG. 9: Cell detachment from vitronectin coated surface. For cell detachment assay, 96-well ELISA plates were coated with vitronectin and cells were allowed to attach and spread for 1 h. Then, 4 ng/μl of free DI17E6 or the different unloaded or doxorubicin nanoparticulate formulations were added and the plates were incubated for additional 4 h at 37° C. to induce detachment (concentrations are calculated referred to DI17E6 or equivalent NP amounts). Detached cells were removed and remaining attached cells were stained with CyQUANT GR and counted against untreated control as described in the manufacturer's instructions manual. (Internal control of each experiment n=10, one representative experiment out of 9 independent experiments is shown.)
For cell detachment assays, 96-well ELISA plates were coated with vitronectin as described above. After blocking, cells were allowed to attach and spread for 1 h in cell adhesion medium. Then, 4 ng/μl or 10 ng/μl of either free DI17E6 or the different nanoparticulate formulations (referred to free mAb) were added and the plates were incubated for additional 4 h at 37° C. to induce detachment. Subsequently, plates were washed and processed as for cell adhesion assay. Specific inhibition of attachment or induction of detachment were determined relative to vitronectin-coated surfaces blocked with BSA.

[6] = Zetapotential by Laser Doppler microelectrophoresis; assay type: physicochemical; settings: mean ± SD; n = 3; 100% crosslinking
Description: (§1) Nanoparticles were analyzed with regard to particle diameter and polydispersity by photon correlation spectroscopy (PCS) using a Malvern Zetasizer 3000HSA (Malvern Instruments Ltd., Malvern, UK). The zetapotential was measured with the same instrument by Laser Doppler microelectrophoresis. Prior to both measurements the samples were diluted with filtered (0.22 μm) purified water. Particle content was determined by microgravimetry. For this purpose 50.0 μl of the nanoparticle suspension was pipetted into an aluminium weighing dish and dried for 2 h at 80° C. After 30 min of storage in an exsiccator the samples were weighed on a micro balance (Sartorius, Germany).

[7] = Particle content by microgravimetry; assay type: physicochemical; settings: mean ± SD; n = 3; 100% crosslinking
Description: as §1

[8] = Particle diameter and polydispersity by photon correlation spectroscopy; assay type: physicochemical; settings: mean ± SD; n = 3; 100% crosslinking
Description: as §1

[9] = system: αv-defective melanoma cells M21L; assay: Cellular binding of nanoparticulate formulations, flow cytometry (FACS); assay type: cell-based; settings: 2 ng/μl, 4 h at 37° C.
Description: (§2) Cellular binding: αvβ3 integrin-positive melanoma cells M21 and αv-negative melanoma cells M21L are incubated with DI17E6-coupled nanoparticles (NP-DI17E6) or nanoparticles coupled to an unspecific control mAb IgG (NP-IgG). […] Both nanoparticle preparations show low binding to M21L cells (FIG. 4D).
(§3) FIG. 4: Cellular binding of unloaded and doxorubicin loaded nanoparticulate formulations. αvβ3 integrin positive melanoma cells M21 (A and C) and αv-defective melanoma cells M21L (B and D) were treated with 2 ng/μl of the different unloaded (A and B) or doxorubicin loaded (C and D) nanoparticulate formulations for 4 h at 37° C. (concentrations are calculated referred to DI17E6 or equivalent NP amounts). Flow cytometry (FACS) analysis was performed to quantify their cellular binding. The data is shown as histogram of the FL1-H-channel (autofluorescence of the nanoparticles). Green: NP-DI17E6 and NP-Dox-DI17E6 respectively, red: NP-IgG and NP-Dox-IgG respectively, blue: untreated control. […]
(§4) M21 or M21L cells were cultured in 24-well plates (Greiner, Frickenhausen, Germany) and treated with the different nanoparticle formulations for 4 h at 37° C. […] Control nanoparticles without DI17E6 modification were used in equivalent nanoparticle quantities. […] Nanoparticles could be detected at 488/520 nm.

[10] = system: αvβ3 integrin positive melanoma cells M21; assay: as above; assay type: cell-based; settings: 2 ng/μl, 4 h at 37° C.
Description: as §2, §3, §4

[11] = Antibody bound to nanoparticle surface (SEC of supernatant); assay type: physicochemical
Description: For the thiolation step of the antibodies, DI17E6 or IgG were dissolved in phosphate buffer pH 8.0 at a concentration of 1.0 mg/ml. For the introduction of thiol groups DI17E6 or IgG, respectively, were incubated with a 50 fold molar excess of 2-iminothiolane solution (c=1.14 mg/ml; 40.2 μl) for 2 h as previously described by Steinhauser et al. (2006). The antibodies were purified by size exclusion chromatography (SEC, D-Salt™ Dextran Desalting column). The resulting solutions contained thiolated antibody (DI17E6 or IgG, respectively) at a concentration of about 500 μg/ml. For the coupling reaction 1.0 ml of the sulfhydryl-reactive nanoparticle suspension was incubated with 1.0 ml of the thiolated DI17E6 or IgG, respectively, to achieve a covalent linkage between antibody and the nanoparticle system. For the preparation of samples with adsorptively attached antibody, 1.0 ml of the mPEG5000-SPA modified nanoparticles were incubated with 1.0 ml of thiolated DI17E6 or IgG, respectively. […] To determine unbound antibody the resulting supernatants were collected and analyzed by size exclusion chromatography (SEC) as described above. The amount of antibody bound to the nanoparticle surface was calculated as difference between the amount of antibody obtained after thiolation and purification and the amount of antibody determined in the supernatant obtained after the conjugation step.

[12] = system: αvβ3 integrin positive melanoma cells M21; assay: Cell attachment on vitronectin coated surface; assay type: cell-based; settings: 2 ng/μl, 1 h
Description: FIG. 8: Cell attachment on vitronectin coated surface. 2 ng/μl of free DI17E6 or the different nanoparticulate formulations were incubated together with the αvβ3 integrin positive melanoma cells M21 on vitronectin coated ELISA plates (concentrations are calculated referred to DI17E6 or equivalent NP amounts). After 1 h of incubation non-adherent cells were removed. Remaining attached cells were stained with CyQUANT GR and counted against untreated control as described in the manufacturer's instructions manual. (Internal control of each experiment n=10, one representative experiment out of 3 independent experiments is shown.)
αvβ3 integrin positive melanoma cells M21 were grown on vitronectin (MoBiTec, Göttingen, Germany) coated ELISA plates (Nunc, Wiesbaden, Germany). Therefore, ELISA 96-well plates were coated with 1 μg/ml vitronectin for 1 h at 37° C. Plates were blocked with 1% heat inactivated BSA (PAA, Cölbe, Germany) and incubated with either 2 ng/μl of free DI17E6 or the different nanoparticulate formulations (referred to free mAb) together with the cells in cell adhesion medium (RPMI 1640 with 2 mM L-glutamine supplemented with 1% BSA). […] Remaining attached cells were stained with CyQUANT GR (Invitrogen, Karlsruhe) and counted against untreated control in a microtiter ELISA reader as described in the manufacturer instructions manual.

[13] = system: αvβ3 positive melanoma cells M21 on vitronectin; assay: Kinetic of cell detachment, transmitted light time lapse microscopy; assay type: cell-based; settings: total incubation time 1-2 d
Description: A parallel detachment kinetic study of the different nanoparticulate formulations or free doxorubicin confirms the cell detachment assay. In this study detachment is observed by transmitted light time lapse microscopy over a period of 1-2 d. Pictures were done every 7 minutes. The detachment time of the cells is measured.
For the determination of cell detachment kinetics, cells were seeded in a vitronectin coated multiwell chamber and incubated with the different nanoparticulate formulations or free doxorubicin in a humidified, CO2-aerated climate chamber at 37° C. Detachment was observed by transmitted light time lapse microscopy over a period of 1-2 d. Pictures were done every 7 minutes. The detachment of the cells was analyzed by manual evaluation of the data.

[14] = biological target: alpha-v beta-3 integrin on M21 melanoma cells (UniProt P06756); assay: cell-based or functional assay
Chain of alpha-v beta-3 integrin on M21 melanoma cells (P06756 31-1048, chain 1 of 2): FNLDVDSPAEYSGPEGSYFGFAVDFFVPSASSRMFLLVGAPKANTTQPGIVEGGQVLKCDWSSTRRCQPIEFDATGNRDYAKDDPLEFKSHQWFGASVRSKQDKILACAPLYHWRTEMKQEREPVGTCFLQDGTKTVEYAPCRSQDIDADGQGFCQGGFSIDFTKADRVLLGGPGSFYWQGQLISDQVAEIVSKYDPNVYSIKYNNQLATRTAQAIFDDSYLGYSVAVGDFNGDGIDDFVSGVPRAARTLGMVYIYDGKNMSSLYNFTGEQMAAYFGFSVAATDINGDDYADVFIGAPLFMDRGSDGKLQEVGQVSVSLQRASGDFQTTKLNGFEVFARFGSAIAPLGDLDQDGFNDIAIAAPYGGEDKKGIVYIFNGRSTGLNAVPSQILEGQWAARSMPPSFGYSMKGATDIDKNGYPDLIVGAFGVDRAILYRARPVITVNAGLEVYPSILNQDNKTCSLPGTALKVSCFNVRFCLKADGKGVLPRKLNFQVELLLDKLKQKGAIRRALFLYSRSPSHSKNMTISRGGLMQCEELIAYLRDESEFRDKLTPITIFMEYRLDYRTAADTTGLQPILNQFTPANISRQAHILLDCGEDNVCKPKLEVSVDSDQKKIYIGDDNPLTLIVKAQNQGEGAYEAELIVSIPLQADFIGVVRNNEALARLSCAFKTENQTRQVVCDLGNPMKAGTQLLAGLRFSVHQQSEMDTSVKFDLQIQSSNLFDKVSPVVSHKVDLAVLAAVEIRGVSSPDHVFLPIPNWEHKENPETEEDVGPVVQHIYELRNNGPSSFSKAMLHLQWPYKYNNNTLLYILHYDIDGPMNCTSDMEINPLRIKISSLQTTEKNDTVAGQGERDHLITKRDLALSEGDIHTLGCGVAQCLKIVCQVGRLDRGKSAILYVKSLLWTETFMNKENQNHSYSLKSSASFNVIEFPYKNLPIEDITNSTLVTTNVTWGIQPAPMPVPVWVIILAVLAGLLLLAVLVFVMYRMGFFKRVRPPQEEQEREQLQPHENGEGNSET
Chain of alpha-v beta-3 integrin on M21 melanoma cells (P05106 27-788, chain 2 of 2, further chain): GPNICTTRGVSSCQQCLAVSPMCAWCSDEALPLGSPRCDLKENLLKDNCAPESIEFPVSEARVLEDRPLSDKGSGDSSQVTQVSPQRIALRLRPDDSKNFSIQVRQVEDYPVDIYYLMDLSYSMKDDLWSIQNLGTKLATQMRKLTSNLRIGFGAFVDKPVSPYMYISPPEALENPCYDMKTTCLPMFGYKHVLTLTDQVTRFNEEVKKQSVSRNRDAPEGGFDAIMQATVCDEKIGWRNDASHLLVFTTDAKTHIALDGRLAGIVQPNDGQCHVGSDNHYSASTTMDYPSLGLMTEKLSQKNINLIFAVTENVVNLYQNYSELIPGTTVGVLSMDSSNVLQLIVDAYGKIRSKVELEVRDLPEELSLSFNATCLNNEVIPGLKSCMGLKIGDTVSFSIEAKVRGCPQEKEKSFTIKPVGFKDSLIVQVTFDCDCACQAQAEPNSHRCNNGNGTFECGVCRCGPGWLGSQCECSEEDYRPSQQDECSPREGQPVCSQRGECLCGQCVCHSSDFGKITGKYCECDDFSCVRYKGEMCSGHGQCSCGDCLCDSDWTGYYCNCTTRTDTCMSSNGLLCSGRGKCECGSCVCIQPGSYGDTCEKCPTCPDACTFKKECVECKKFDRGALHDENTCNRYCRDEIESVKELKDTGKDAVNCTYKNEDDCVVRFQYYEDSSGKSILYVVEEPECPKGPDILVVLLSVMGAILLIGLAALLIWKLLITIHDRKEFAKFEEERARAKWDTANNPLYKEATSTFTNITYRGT

Compound: NP-Dox-DI17E6
IC-50 M21 [1]: 8.0 ± 0.2 ng/mL
IC-50 M21L [2]: >100 ng/mL
Drug loading [3]: 56.7 ± 2.9 µg/mg
Cellular uptake and intracellular distribution [4]: reaches the inner part of the cells
Cell detachment from vitronectin coated surfaces [5]: same detachment efficiency
Zetapotential [6]: −40.3 ± 3.1 mV
Particle content [7]: 14.4 ± 1.2 mg/mL
Particle diameter [8]: 404.9 ± 27.0 nm
Polydispersity [8]: 0.040 ± 0.045
Cellular binding to M21L cells [9]: low binding
Cellular binding to M21 cells [10]: high binding
Covalent linkage of antibody to the particle surface ([11]; covalent linkage): 11-20 μg antibody/mg nanoparticle
Antibody binding efficiency ([11]; mean ± SD, n = 3, antibody per mg nanoparticle): 15.84 ± 4.07 µg/mg

Compound: free DI17E6: deimmunized version of monoclonal mouse antibody 17E6, directed against αv integrins (SEQ ID No. 1 and 2)
Inhibition of cell attachment to vitronectin coated surfaces [12]: inhibits the attachment of the M21 cells to vitronectin coated surfaces
IC-50 M21 [1]: >100 ng/mL
IC-50 M21L [2]: >100 ng/mL
Cell detachment from vitronectin coated surfaces [5]: cell detachment of αvβ3 positive melanoma cells M21 from vitronectin coated surfaces is also possible

IC50 ([1]; Homo sapiens, M21, read-out: IC-50 M21): 0.0575 ± 0.0037 µg/mL (≈ 0.106 µM)
Compound: COc1cccc2c1C(=O)c1c(O)c3c(c(O)c1C2=O)C[C@@](O)(C(=O)CO)C[C@@H]3O[C@H]1C[C@H](N)[C@H](O)[C@H](C)O1 [free doxorubicin, doxorubicin, reference compound]
Cell death [h after incubation] [13]: 17 h
IC50 ([2]; read-out: IC-50 M21L): 0.0707 ± 0.0008 µg/mL (≈ 0.13 µM)
Cellular uptake and intracellular distribution [4]: Red doxorubicin fluorescence can be detected

Compound: NP-Dox-DI17E6 (doxorubicin-loaded HSA nanoparticles with DI17E6 covalently coupled on the surface)
IC-50 of MTT cell viability assay on M21 cells (referred to doxorubicin) [14]: 8 ng/mL
